Measurements taken from patent US11447505B1, “Pyrrolo[2,3-b]pyridine compounds and their use in the treatment of cancer” (priority 2017, dated 2022).

Key:
MRCKβ = MRCKβ (Homo sapiens (Human), UniProt Q9Y5S2); experiment: MRCKβ kinase assay (IMAP fluorescence polarization); format: biochemical; conditions: 1 μM ATP; read-out: MRCK-B Average Ki
Excerpt: MRCKα, MRCKβ, ROCK1 and ROCK2 Kinase Assays

ROCK2 = ROCK2 (Homo sapiens (Human), UniProt O75116); experiment: ROCK2 kinase assay (IMAP fluorescence polarization); format: biochemical; conditions: 1 μM ATP; read-out: ROCK2 Average Ki
Chain of ROCK2 (O75116 whole entry): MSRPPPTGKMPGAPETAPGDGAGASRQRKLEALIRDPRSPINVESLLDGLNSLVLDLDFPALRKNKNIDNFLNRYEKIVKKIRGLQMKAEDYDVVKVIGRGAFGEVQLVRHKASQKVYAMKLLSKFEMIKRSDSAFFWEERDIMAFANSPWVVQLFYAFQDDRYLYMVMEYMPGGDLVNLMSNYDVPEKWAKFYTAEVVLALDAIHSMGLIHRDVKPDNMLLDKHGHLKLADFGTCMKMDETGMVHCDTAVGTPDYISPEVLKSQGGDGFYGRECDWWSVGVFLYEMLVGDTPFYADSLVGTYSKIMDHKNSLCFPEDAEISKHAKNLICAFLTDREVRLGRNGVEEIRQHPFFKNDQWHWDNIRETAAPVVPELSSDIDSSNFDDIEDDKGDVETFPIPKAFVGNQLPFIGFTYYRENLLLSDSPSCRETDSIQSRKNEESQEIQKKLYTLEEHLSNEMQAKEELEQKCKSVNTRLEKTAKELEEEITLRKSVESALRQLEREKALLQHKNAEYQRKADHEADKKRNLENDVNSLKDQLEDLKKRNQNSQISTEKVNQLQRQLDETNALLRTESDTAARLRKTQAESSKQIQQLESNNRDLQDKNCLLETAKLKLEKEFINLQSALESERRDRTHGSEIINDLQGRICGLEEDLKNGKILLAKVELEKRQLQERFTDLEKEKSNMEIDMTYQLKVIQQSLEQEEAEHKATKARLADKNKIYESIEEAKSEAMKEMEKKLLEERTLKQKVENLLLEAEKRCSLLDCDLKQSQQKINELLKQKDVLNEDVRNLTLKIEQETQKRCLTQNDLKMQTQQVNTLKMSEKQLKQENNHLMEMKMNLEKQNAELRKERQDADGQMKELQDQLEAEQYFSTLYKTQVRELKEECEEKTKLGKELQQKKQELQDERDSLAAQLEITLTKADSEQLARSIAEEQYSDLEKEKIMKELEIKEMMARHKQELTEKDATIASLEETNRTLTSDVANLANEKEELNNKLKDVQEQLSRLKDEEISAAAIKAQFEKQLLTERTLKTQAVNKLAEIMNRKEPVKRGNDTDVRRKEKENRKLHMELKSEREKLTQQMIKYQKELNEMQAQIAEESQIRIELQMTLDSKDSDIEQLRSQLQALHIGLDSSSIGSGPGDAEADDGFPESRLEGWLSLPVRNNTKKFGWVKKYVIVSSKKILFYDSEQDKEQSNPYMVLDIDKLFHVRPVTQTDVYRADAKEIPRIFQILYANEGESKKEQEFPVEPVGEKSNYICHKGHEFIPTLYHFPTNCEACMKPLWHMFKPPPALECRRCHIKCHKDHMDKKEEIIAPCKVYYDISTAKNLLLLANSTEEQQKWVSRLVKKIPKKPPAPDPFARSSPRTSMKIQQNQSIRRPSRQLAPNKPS
Procedure: MRCKα, MRCKβ, ROCK1 and ROCK2 assays were performed using an IMAP fluorescence polarization assay format (Molecular Devices Inc.). 8-12 nM of each kinase (Life Technologies) was incubated for 60 min at room temperature with 100 nM FAM-S6-ribosomal protein derived peptide (synthesized by Alta Biosciences, University of Birmingham UK) in the presence of 1 μM ATP and 0.5 mM MgCl2 in 20 mM Tris buffer (pH 7.4) containing 0.01% Tween-20 and 1 mM DTT (MRCKα and β); or 1 μM ATP, 10 mM MgCl2 in 20 mM Tris buffer (pH 7.5) containing 0.25 mM EGTA 0.01% Triton X-100 and 1 mM DTT (ROCK1 and ROCK2). Typically, dose response analyses were performed over concentration ranges from 0.005-100 μM. Reactions were stopped by adding 2 assay volumes of 0.25% (v/v) IMAP binding reagent in 1×IMAP binding buffer A (Molecular Devices). After 30 min incubation to allow binding reagent to bind phosphorylated peptide, fluorescence polarization was measured on a Tecan Saphire^2 plate reader at excitation (470 nm) and emission (530 nm) wavelengths.

ROCK1 = ROCK1 (Homo sapiens (Human), UniProt Q13464); conditions: read-out: ROCK1 Average Ki; 1 μM ATP
Chain of ROCK1 (Q13464 2-1354 limits assumed): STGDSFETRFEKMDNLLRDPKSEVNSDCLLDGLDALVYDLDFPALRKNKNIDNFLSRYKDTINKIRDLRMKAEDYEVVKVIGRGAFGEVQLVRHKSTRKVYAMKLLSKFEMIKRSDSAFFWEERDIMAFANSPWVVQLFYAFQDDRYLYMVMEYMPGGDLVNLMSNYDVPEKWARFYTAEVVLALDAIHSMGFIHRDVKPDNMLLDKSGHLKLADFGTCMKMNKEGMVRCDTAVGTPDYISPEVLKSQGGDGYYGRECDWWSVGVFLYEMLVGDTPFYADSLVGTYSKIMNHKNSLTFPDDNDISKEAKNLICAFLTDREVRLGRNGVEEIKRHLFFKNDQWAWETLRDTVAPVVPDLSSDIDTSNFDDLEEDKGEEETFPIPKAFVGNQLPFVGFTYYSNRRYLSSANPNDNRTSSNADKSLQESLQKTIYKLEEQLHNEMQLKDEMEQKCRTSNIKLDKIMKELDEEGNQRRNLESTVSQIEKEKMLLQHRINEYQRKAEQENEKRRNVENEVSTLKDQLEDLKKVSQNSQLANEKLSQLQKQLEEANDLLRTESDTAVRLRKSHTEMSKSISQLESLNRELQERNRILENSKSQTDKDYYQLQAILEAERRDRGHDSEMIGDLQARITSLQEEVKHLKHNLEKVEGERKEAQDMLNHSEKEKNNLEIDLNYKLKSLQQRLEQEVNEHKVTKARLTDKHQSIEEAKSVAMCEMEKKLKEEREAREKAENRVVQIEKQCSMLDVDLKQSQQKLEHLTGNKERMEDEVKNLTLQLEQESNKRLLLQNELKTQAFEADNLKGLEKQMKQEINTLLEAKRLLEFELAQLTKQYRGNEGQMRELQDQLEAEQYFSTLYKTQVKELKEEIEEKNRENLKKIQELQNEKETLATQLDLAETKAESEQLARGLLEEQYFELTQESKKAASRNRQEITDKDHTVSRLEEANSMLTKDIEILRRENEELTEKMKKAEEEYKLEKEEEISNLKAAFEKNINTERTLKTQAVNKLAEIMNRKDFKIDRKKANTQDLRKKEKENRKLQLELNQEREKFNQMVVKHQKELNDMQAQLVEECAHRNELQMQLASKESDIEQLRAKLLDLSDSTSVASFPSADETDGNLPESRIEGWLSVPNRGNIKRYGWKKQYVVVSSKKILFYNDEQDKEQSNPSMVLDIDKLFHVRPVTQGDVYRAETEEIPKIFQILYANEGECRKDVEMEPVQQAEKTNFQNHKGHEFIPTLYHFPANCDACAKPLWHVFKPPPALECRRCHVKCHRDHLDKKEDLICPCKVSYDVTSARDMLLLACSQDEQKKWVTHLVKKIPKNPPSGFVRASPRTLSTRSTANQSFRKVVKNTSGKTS
Procedure: MRCKα, MRCKβ, ROCK1 and ROCK2 assays were performed using an IMAP fluorescence polarization assay format (Molecular Devices Inc.). […] Typically, dose response analyses were performed over concentration ranges from 0.005-100 μM. […] After 30 min incubation to allow binding reagent to bind phosphorylated peptide, fluorescence polarization was measured on a Tecan Saphire^2 plate reader at excitation (470 nm) and emission (530 nm) wavelengths.

SMILES | Ki (MRCKβ) [nM] | Ki (ROCK2) [nM] | Ki (ROCK1) [nM]
CN(C1CC1)[C@H]1CCCN(c2ccnc3[nH]cc(-c4cncnc4)c23)C1 (stereo in doubt) [Example E80] | 8.3 | 228 | 499
CN[C@H]1CCCN(c2ccnc3[nH]cc(-c4cncnc4)c23)[C@H]1C (relative stereo) [Example E179, cis-N,2-dimethyl-1-(3-pyrimidin-5-yl-1H-pyrrolo[2,3-b]pyridin-4-yl)piperidin-3-amine] | 128 | 1090 | 1290
CN[C@H]1CCCN(c2ccnc3[nH]cc(-c4ccccn4)c23)C1 [Example E49, (3S)-N-methyl-1-[3-(2-pyridyl)-1H-pyrrolo[2,3-b]pyridin-4-yl]piperidin-3-amine] | 0.506 | 272 | 50800
NC1CCN(c2ccnc3[nH]cc(-c4cncnc4)c23)CC1 [Example E65, 1-(3-pyrimidin-5-yl-1H-pyrrolo[2,3-b]pyridin-4-yl)piperidin-4-amine] | 1.65 | 138 | 128
NC1CCCN(c2ccnc3[nH]cc(-c4cncnc4)c23)C1 (stereo not shown) [Example E59, 1-(3-pyrimidin-5-yl-1H-pyrrolo[2,3-b]pyridin-4-yl)piperidin-3-amine] | 6.9 | 154 | 318
N[C@H]1CCN(c2ccnc3[nH]cc(-c4cncnc4)c23)C1 [Example E58, (3S)-1-(3-pyrimidin-5-yl-1H-pyrrolo[2,3-b]pyridin-4-yl)pyrrolidin-3-amine] | 3.48 | 85.8 | 158
c1cc(N2CCCCC2)c2c(-c3ccc4[nH]ncc4c3)c[nH]c2n1 [Example E19, 3-(1H-indazol-5-yl)-4-(1-piperidyl)-1H-pyrrolo[2,3-b]pyridine] | 213 | 115 | 144
CNC(=O)c1cncc(-c2c[nH]c3nccc(N4CCCCC4)c23)c1 [Example E13, N-methyl-5-[4-(1-piperidyl)-1H-pyrrolo[2,3-b]pyridin-3-yl]pyridine-3-carboxamide] | 378 | 1740 | 10000
CN1CCCN(c2ccnc3[nH]cc(-c4cncnc4)c23)CC1 [Example E103, 4(4-methyl-1,4-diazepan-l-yl)-3-pyrimidin-5-yl-1H-pyrrolo[2,3-b]pyridine] | 18.7 | 161 | 252
CN1CCC[C@H](COc2ccnc3[nH]cc(-c4cncnc4)c23)C1 [Example E226, 3-pyrimidin-5-yl-4-[[(3S)-1-methyl-3-piperidyl]methoxy]-1H-pyrrolo[2,3-b]pyridine] | 5 | 111 | 150
c1cnc(-c2c[nH]c3nccc(N4CCCCC4)c23)cn1 [Example E16, 4-(1-piperidyl)-3-pyrazin-2-yl-1H-pyrrolo[2,3-b]pyridine] | 61.8 | 159 | 504
CN1CCN(C(=O)[C@@H]2CCCN2c2ccnc3[nH]cc(C#N)c23)CC1 [Example E204, 4-[(2S)-2-(4-methylpiperazine-1-carbonyl)pyrrolidin-1-yl]-1H-pyrrolo[2,3-b]pyridine-3-carbonitrile] | 119 | 762 | 558
N[C@@H]1CCCN(c2ccnc3[nH]cc(-c4cncnc4)c23)C1 [Example E64, (3R)-1-(3-pyrimidin-5-yl-1H-pyrrolo[2,3-b]pyridin-4-yl)piperidin-3-amine] | 14.8 | 390 | 166
OCCN[C@H]1CCCN(c2ccnc3[nH]cc(-c4cncnc4)c23)C1 [Example E56, 2-[[(3S)-1-(3-pyrimidin-5-yl-1H-pyrrolo[2,3-b]pyridin-4-yl)-3-piperidyl]amino]ethanol] | 2.23 | 573 | 1390
CC(C)N[C@H]1CCCN(c2ccnc3[nH]cc(-c4cncnc4)c23)C1 [Example E76, (3S)-N-isopropyl-1-(3-pyrimidin-5-yl-1H-pyrrolo[2,3-b]pyridin-4-yl)piperidin-3-amine] | 871 | 16800 | 32400
c1ncc(-c2c[nH]c3nccc(NCC4CCNCC4)c23)cn1 [Example E102, N-(4-piperidylmethyl)-3-pyrimidin-5-yl-1H-pyrrolo[2,3-b]pyridin-4-amine] | 13.9 | 51.2 | 38.2
c1ncc(-c2c[nH]c3nccc(N4CCCC(N5CCNCC5)C4)c23)cn1 (stereo not shown) [Example E91, 4-(3-piperazin-1-yl-1-piperidyl)-3-pyrimidin-5-yl-1H-pyrrolo[2,3-b]pyridine] | 49.5 | 163 | 231
c1ncc(-c2c[nH]c3nccc(N4CCC[C@]5(CCCCN5)C4)c23)cn1 [Example E192, (6R)-8-(3-pyrimidin-5-yl-1H-pyrrolo[2,3-b]pyridin-4-yl)-1,8-diazaspiro[5.5]undecane] | 8.33 | 428 | 50500
NCC1CCN(c2ccnc3[nH]cc(-c4cncnc4)c23)CC1 [Example E105, [1-(3-pyrimidin-5-yl-1H-pyrrolo[2,3-b]pyridin-4-yl)-4-piperidyl]methanamine] | 1 | 9.5 | 10.1

SMILES | Ki (MRCKβ) [nM] | Ki (ROCK2) [nM] | Ki (ROCK1) [nM]
N#Cc1c[nH]c2nccc(N3CCNCC3)c12 [Example E34, 4-piperazin-1-yl-1H-pyrrolo[2,3-b]pyridine-3-carbonitrile] | 52.8 | 23.8 | 43.6
CN[C@H]1CCCN(c2ccnc3[nH]cc(-c4ncccc4F)c23)C1 [Example E48, (3S)-1-[3-(3-fluoro-2-pyridyl)-1H-pyrrolo[2,3-b]pyridin-4-yl]-N-methyl-piperidin-3-amine] | 1.73 | 756 | 3530
N#Cc1c[nH]c2nccc(N3CCC3)c12 [Example E240] | 8.31 | 21.6 | 38.7
CNC1CCN(c2ccnc3[nH]cc(-c4cncnc4)c23)CC1 [Example E63, N-methyl-1-(3-pyrimidin-5-yl-1H-pyrrolo[2,3-b]pyridin-4-yl)piperidin-4-amine] | 1.98 | 91.2 | 138
Clc1cncc(-c2c[nH]c3nccc(N4CCCCC4)c23)c1 [Example E12, 3-(5-chloro-3-pyridyl)-4-(1-piperidyl)-1H-pyrrolo[2,3-b]pyridine] | 366 | 574 | 2150
c1ncc(-c2c[nH]c3nccc(OCC4CCCNC4)c23)cn1 (stereo not shown) [Example E220, 4-(3-piperidylmethoxy)-3-pyrimidin-5-yl-1H-pyrrolo[2,3-b]pyridine] | 1.07 | 40.7 | 34
CN[C@H]1CCCN(c2ccnc3[nH]cc(C#N)c23)C1 [Example E74, 4-[(3S)-3-(methylamino)-1-piperidyl]-1H-pyrrolo[2,3-b]pyridine-3-carbonitrile] | 6.16 | 222 | 637
N#Cc1c[nH]c2nccc(N3CCCC(c4ccccc4)C3)c12 (stereo not shown) [Example E112, 4-(3-phenyl-1-piperidyl)-1H-pyrrolo[2,3-b]pyridine-3-carbonitrile] | 558 | 728 | 682
CN[C@H]1CCCN(c2ccnc3[nH]cc(-c4cccnc4)c23)C1 [Example E53, (3S)-N-methyl-1-[3-(3-pyridyl)-1H-pyrrolo[2,3-b]pyridin-4-yl]piperidin-3-amine] | 1.27 | 335 | 50500
c1ccc(-c2c[nH]c3nccc(N4CCC4)c23)nc1 [Example E25, 4-(azetidin-1-yl)-3-(2-pyridyl)-1H-pyrrolo[2,3-b]pyridine] | 178 | 1500 | 10000
Cc1cnc2[nH]cc(-c3cncnc3)c2c1N1CCCCC1 [Example E1, 5-methyl-4-(1-piperidyl)-3-pyrimidin-5-yl-1H-pyrrolo[2,3-b]pyridine] | 64.6 | 6500 | 15000
Cn1ccc(-c2c[nH]c3nccc(N4CCCCC4)c23)n1 [Example E22, 3-(1-methylpyrazol-3-yl)-4-(1-piperidyl)-1H-pyrrolo[2,3-b]pyridine] | 656 | 3220 | 10000
N#Cc1c[nH]c2nccc(N3CCCC3Cc3ccccc3)c12 (stereo not shown) [Example E107, 4-(2-benzylpyrrolidin-1-yl)-1H-pyrrolo[2,3-b]pyridine-3-carbonitrile] | 90.3 | 2820 | 1880
c1cc(-c2c[nH]c3nccc(N4CCCCC4)c23)ncn1 [Example E4, 4-(1-piperidyl)-3-pyrimidin-4-yl-1H-pyrrolo[2,3-b]pyridine] | 15.5 | 19.7 | 28.3
c1cc(N2CCC2)c2c(-c3cn[nH]c3)c[nH]c2n1 [Example E27, 4-(azetidin-1-yl)-3-(1H-pyrazol-4-yl)-1H-pyrrolo[2,3-b]pyridine] | 130 | 381 | 713
Cn1nccc1-c1c[nH]c2nccc(N3CCCCC3)c12 [Example E18, 3-(2-methylpyrazol-3-yl)-4-(1-piperidyl)-1H-pyrrolo[2,3-b]pyridine] | 818 | 2480 | 10000
c1ncc(-c2c[nH]c3nccc(O[C@@H]4CCCNC4)c23)cn1 [Example E217, 4-[[(3R)-3-piperidyl]oxy]-3-pyrimidin-5-yl-1H-pyrrolo[2,3-b]pyridine] | 4.01 | 77.5 | 114
Cc1cnc(-c2c[nH]c3nccc(N4CCC[C@]5(CCCCN5)C4)c23)s1 [Example E148, 2-[4-[(6R)-1,8-diazaspiro[5.5]undecan-8-yl]-1H-pyrrolo[2,3-b]pyridin-3-yl]-5-methyl-thiazole] | 4.02 | – | 100000
c1cc(-c2c[nH]c3nccc(N4CCCC5(CNC5)C4)c23)cnn1 [Example E156, 4-(2,6-diazaspiro[3.5]nonan-6-yl)-3-pyridazin-4-yl-1H-pyrrolo[2,3-b]pyridine] | 1.69 | – | 57.4
